In ChEMBL document CHEMBL5150056, “Synthesis and antibiofilm evaluation of N-acyl-2-aminopyrimidine derivatives against Acinetobacter baumannii” (Bioorg Med Chem, 2022):
Values after ≈ are worked out from the molar mass of the structure shown. Active and inactive are the calls of the source. The rule behind the calls is not given here.

Key:
[1] = system: Acinetobacter baumannii; test: Antibiofilm activity against Acinetobacter baumannii ATCC19606 assessed as inhibition of biofilm formation incubated for 18 to 24 hrs by crystal violet staining based assay; format: functional, organism-based
[2] = system: Staphylococcus aureus; test: Antibiofilm activity against Staphylococcus aureus ATCC […] assessed as inhibition of biofilm formation incubated for 18 to 24 hrs by crystal violet staining based assay; format: functional, organism-based
[3] = system: Pseudomonas aeruginosa; test: Antibiofilm activity against Pseudomonas aeruginosa ATCC 27853 assessed as inhibition of biofilm formation incubated for 18 to 24 hrs by crystal violet staining based assay; format: functional, organism-based
[4] = Cytotoxicity against mouse 3T3-L1 cells assessed as inhibition of cell growth incubated for 24 hrs by MTT assay; format: toxicity, cell-based
[5] = system: Escherichia coli; test: Antibiofilm activity against Escherichia coli Dh5alpha assessed as inhibition of biofilm formation incubated for 18 to 24 hrs by crystal violet staining based assay; format: functional, organism-based; conditions: DH5-alpha
[6] = system: Acinetobacter baumannii; test: Antibiofilm activity against Acinetobacter baumannii 1925052 assessed as inhibition of biofilm formation incubated for 18 to 24 hrs by crystal violet staining based assay; format: functional, organism-based
[7] = system: Acinetobacter baumannii; test: Antibiofilm activity against Acinetobacter baumannii S1 assessed as inhibition rate of biofilm formation at 100 uM incubated for 18 to 24 hrs by crystal violet staining based assay (reference value: 28.8 +/- 8.21%); format: functional; set-up: scale not given: the % may be the effect or the level left; conditions: time 18-24 hrs
[8] = system: Acinetobacter baumannii; test: Antibiofilm activity against Acinetobacter baumannii 1778027 assessed as inhibition of biofilm formation incubated for 18 to 24 hrs by crystal violet staining based assay; format: functional, organism-based
[9] = system: Acinetobacter baumannii; test: Antibiofilm activity against Acinetobacter baumannii assessed as reduction in extracellular polysaccharides at 100 uM incubated for 1 hrs by ELISA analysis; format: functional; set-up: scale not given: the % may be the effect or the level left
[10] = system: Acinetobacter baumannii; test: Synergistic antibacterial activity against Acinetobacter baumannii assessed as fractional inhibitory concentration index incubated for 18 to 24 hrs in the presence of oxacillin by CLSI protocol based checkerboard assay; format: functional; conditions: time 18-24 hrs
[11] = system: Acinetobacter baumannii; test: Antibiofilm activity against Acinetobacter baumannii assessed as reduction in bacterial motility in agar plates by quorum sensing process at 100 uM incubated for 24 hrs; format: functional, organism-based
[12] = system: Acinetobacter baumannii; test: Antibacterial activity against Acinetobacter baumannii S1 assessed as planktonic growth inhibition incubated for 18 to 24 hrs by CLSI protocol based assay; format: functional; conditions: time 18-24 hrs
[13] = system: Acinetobacter baumannii; test: Synergistic antibacterial activity against Acinetobacter baumannii assessed as planktonic growth inhibition incubated for 18 to 24 hrs in the presence of chloramphenicol by CLSI protocol based checkerboard assay; format: functional; conditions: time 18-24 hrs
[14] = system: Acinetobacter baumannii; test: Synergistic antibacterial activity against Acinetobacter baumannii assessed as planktonic growth inhibition incubated for 18 to 24 hrs in the presence of oxacillin by CLSI protocol based checkerboard assay; format: functional; conditions: time 18-24 hrs
[15] = system: Acinetobacter baumannii; test: Antibiofilm activity against Acinetobacter baumannii 1913061 assessed as inhibition of biofilm formation incubated for 18 to 24 hrs by crystal violet staining based assay; format: functional, organism-based
[16] = system: 3T3-L1; test: Cytotoxicity against mouse 3T3-L1 cells assessed as reduction in cell viability at 12.5 uM incubated for 24 hrs by MTT assay relative to control; format: toxicity, cell-based; conditions: 3t3-l1, 24 h
[17] = system: 3T3-L1; test: Cytotoxicity against mouse 3T3-L1 cells assessed as reduction in cell viability at 25 uM incubated for 24 hrs by MTT assay relative to control; format: toxicity, cell-based; conditions: 3t3-l1, 24 h
[18] = system: Acinetobacter baumannii; test: Antibiofilm activity against Acinetobacter baumannii assessed as reduction in biofilm thickness at 100 uM incubated for 24 hrs by Alexa fluor 488 staining based confocal laser microscopic analysis (reference value: 25.91); format: functional
[19] = system: 3T3-L1; test: Cytotoxicity against mouse 3T3-L1 cells assessed as reduction in cell viability at 50 uM incubated for 24 hrs by MTT assay relative to control; format: toxicity, cell-based; conditions: 3t3-l1, 24 h
[20] = system: 3T3-L1; test: Cytotoxicity against mouse 3T3-L1 cells assessed as reduction in cell viability at 100 uM incubated for 24 hrs by MTT assay relative to control; format: toxicity, cell-based; conditions: 3t3-l1, 24 h
[21] = system: Acinetobacter baumannii; test: Antibiofilm activity against Acinetobacter baumannii S1 assessed as inhibition of biofilm formation incubated for 18 to 24 hrs by crystal violet staining based assay; format: functional, organism-based
[22] = system: Acinetobacter baumannii; test: Synergistic antibacterial activity against Acinetobacter baumannii assessed as planktonic growth inhibition incubated for 18 to 24 hrs in the presence of gentamycin sulphate by CLSI protocol based checkerboard assay; format: functional; conditions: time 18-24 hrs
[23] = system: Staphylococcus epidermidis; test: Antibiofilm activity against Staphylococcus epidermis ATCC 102555 assessed as inhibition of biofilm formation incubated for 18 to 24 hrs by crystal violet staining based assay; format: functional, organism-based
[24] = system: Acinetobacter baumannii; test: Synergistic antibacterial activity against Acinetobacter baumannii assessed as fractional inhibitory concentration index incubated for 18 to 24 hrs in the presence of chloramphenicol by CLSI protocol based checkerboard assay; format: functional; conditions: time 18-24 hrs
[25] = system: Acinetobacter baumannii; test: Antibiofilm activity against Acinetobacter baumannii assessed as reduction in biofilm brightness at 100 uM incubated for 24 hrs by Alexa fluor 488 staining based confocal laser microscopic analysis; format: functional, organism-based
[26] = system: Acinetobacter baumannii; test: Synergistic antibacterial activity against Acinetobacter baumannii assessed as fractional inhibitory concentration index incubated for 18 to 24 hrs in the presence of gentamycin sulphate by CLSI protocol based checkerboard assay; format: functional; conditions: time 18-24 hrs
[27] = system: Acinetobacter baumannii; test: Antibiofilm activity against Acinetobacter baumannii 1780608 assessed as inhibition of biofilm formation incubated for 18 to 24 hrs by crystal violet staining based assay; format: functional, organism-based
[28] = system: Acinetobacter baumannii; test: Antibacterial activity against Acinetobacter baumannii assessed as planktonic growth inhibition incubated for 18 to 24 hrs by CLSI protocol based assay; format: functional; conditions: time 18-24 hrs
[29] = system: 3T3-L1; test: Cytotoxicity against mouse 3T3-L1 cells assessed as reduction in cell viability at 200 uM incubated for 24 hrs by MTT assay relative to control; format: toxicity, cell-based; conditions: 3t3-l1, 24 h

Structure (SMILES): CCCCCCCCCCCCCC(=O)Nc1nc(Cl)cc(N2CCNCC2)n1
- IC50 [1]: 4.43 µM
- IC50 [2]: 11.2 µM
- IC50 [3]: 9.98 µM
- IC50 at 24 h [4]: 73.6 µM
- IC50 [5]: 3.68 µM
- IC50 [6]: 3.98 µM
- Activity [7]: 70.2%
- IC50 [8]: 47.5 µM
- Activity [9]: 72%
- fractional inhibitory concentration index (FICI) [10]: 0.25
- Activity [11]: Active
- MIC [12]: > 256 µg/mL
- MIC [13]: 64 µg/mL
- MIC [14]: 128 µg/mL
- IC50 [15]: 1.89 µM
- Activity [16]: 99.3%
- Activity [17]: 99.3%
- Activity [18]: 14.68
- Activity [19]: 80.61%
- Activity [20]: 21.11%
- IC50 [21]: 16.5 µM
- MIC [22]: 0.125 µg/mL
- IC50 [23]: 6.76 µM
- fractional inhibitory concentration index (FICI) [24]: 0.25
- Activity [25]: Active
- fractional inhibitory concentration index (FICI) [26]: 0.13
- IC50 [27]: 5.92 µM
- MIC [28]: 256 µg/mL (≈ 604 µM)
- Activity [29]: 20.84%
